Measured values taken from article PMC3152585 (Dental materials : official publication of the Academy of …, 2011).
Converted amounts (≈) assume the structure as drawn. “And” between values parts separate entries of the source, which are not always exact repeats. Equal values may be shown once. Marks after values point to notes of the source that are not given here.

What was measured:
[1] = biological target: recombinant human MMP-9 (rhMMP-9) (Homo sapiens, UniProt P14780); assay: Sensolyte Generic MMP colorimetric assay with soluble rhMMP-9; conditions: for IC50 (moles/L) for rhMMP-9: from regression of percent inhibition vs alcohol concentration; for IC50 (moles/L) for rhMMP-9 / % Inhibition of soluble rhMMP-9: mean ± SEM, n=5; for % Inhibition of soluble rhMMP-9: alcohol 4.28 M
[2] = test system: matrix-bound endogenous MMPs of dentin; assay: Loss of dry mass of demineralized dentin beams over 30 days; assay type: biochemical, human; conditions: for % Inhibition (loss of dry mass): vs buffer control; for Loss of dry mass (%): mean ± SEM, n=10, buffer control -21.02
[3] = test system: matrix-bound endogenous MMPs of dentin; assay: Solubilization of collagen peptides; assay type: biochemical, human; conditions: 30 days, vs buffer control
physchem = conditions: aqueous buffer
MMP-2 = conditions: 5 wt% monomeric HEMA, PAGE gels; cited from earlier work
[4] = read-out: % Inhibition of soluble rhMMP-9

Chain of recombinant human MMP-9 (rhMMP-9) (P14780 107-707 limits assumed): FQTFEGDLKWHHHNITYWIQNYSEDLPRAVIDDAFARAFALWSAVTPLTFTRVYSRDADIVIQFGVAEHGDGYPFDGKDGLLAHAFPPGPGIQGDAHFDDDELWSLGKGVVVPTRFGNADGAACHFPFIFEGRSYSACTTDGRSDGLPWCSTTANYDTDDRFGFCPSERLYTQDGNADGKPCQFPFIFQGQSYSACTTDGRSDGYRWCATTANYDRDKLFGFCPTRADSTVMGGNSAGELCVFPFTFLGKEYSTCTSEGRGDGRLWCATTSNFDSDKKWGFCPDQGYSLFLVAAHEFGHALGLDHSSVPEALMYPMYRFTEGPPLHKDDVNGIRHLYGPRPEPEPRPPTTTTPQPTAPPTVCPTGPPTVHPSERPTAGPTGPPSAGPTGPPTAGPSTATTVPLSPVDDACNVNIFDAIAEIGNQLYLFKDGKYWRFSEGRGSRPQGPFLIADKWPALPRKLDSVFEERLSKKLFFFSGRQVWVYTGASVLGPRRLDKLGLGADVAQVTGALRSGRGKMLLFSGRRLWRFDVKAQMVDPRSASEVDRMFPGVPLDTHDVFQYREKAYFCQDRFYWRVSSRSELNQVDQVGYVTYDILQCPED

CCCCC(C)O (stereo not drawn) [2-hexanol]
IC50 (moles/L) for rhMMP-9 [1]: 1.6 ± 0.09%^c moles/L | inhibition at 170000 µM [1, 4]: 13.2 ± 0.67%

CCC(C)O (stereo not drawn) [2-butanol]
% Inhibition of soluble rhMMP-9 [1]: 78.7 ± 0.94%^F | IC50 (moles/L) for rhMMP-9 [1]: 0.5 ± 0.04%^b moles/L | % Inhibition (loss of dry mass) ([2]; alcohol […]): 80.2% | % Inhibition (solubilization of HYP) ([3]; alcohol […]): 82.9%

CCCCCCC(C)O (stereo not drawn) [2-octanol]
IC50 (moles/L) for rhMMP-9 [1]: 2.7 ± 0.18%^d moles/L | inhibition at 170000 µM [1, 4]: 21.5 ± 0.63%

CC(C)O [2-propanol]
% Inhibition of soluble rhMMP-9 [1]: 52.7 ± 0.18%^D | IC50 (moles/L) for rhMMP-9 [1]: 4.4 ± 0.13%^e moles/L

CCCCCCO [1-hexanol]
inhibition at 170000 µM [1, 4]: 28.3 ± 0.4%

CCCC(O)CC (stereo not drawn) [3-hexanol]
IC50 (moles/L) for rhMMP-9 [1]: 0.4 ± 0.04%^b moles/L | inhibition at 170000 µM [1, 4]: 35.1 ± 1.16%

C=C(C)C(=O)OCCO [HEMA, 2-hydroxyethylmethacrylate]
solubility (physchem): 4280 mM (≈ 557 mg/mL) | IC50 [1]: 100 ± 90 mM | Inhibition of rhMMP-9 ([1]; 2.2 vol% HEMA, data not shown): 98% | Inhibition of MMP-9 relative to the same concentration of ethanol ([1]; compared to ethanol): nineteen times more | Inhibition of MMP-2 (MMP-2): about 80% | % Inhibition (loss of dry mass) ([2]; 0.86 M): 80.7% | % Inhibition (loss of dry mass) ([2]; […]): 79.1% | % Inhibition (loss of dry mass) ([2]; alcohol 4.28 M): 80.8% | % Inhibition (solubilization of HYP) ([3]; 0.86 M): 88.1% | % Inhibition (solubilization of HYP) ([3]; […]): 83.6% | % Inhibition (solubilization of HYP) ([3]; alcohol 4.28 M): 85.6%

CCCCCC(C)O (stereo not drawn) [2-heptanol]
IC50 (moles/L) for rhMMP-9 [1]: 3.0 ± 0.18%^d moles/L | inhibition at 170000 µM [1, 4]: 13.7 ± 2.33%

CCCCC(O)CC (stereo not drawn) [3-heptanol]
IC50 (moles/L) for rhMMP-9 [1]: 0.5 ± 0.04%^b moles/L | inhibition at 170000 µM [1, 4]: 17.1 ± 0.54%

CCO [ethanol]
% Inhibition of soluble rhMMP-9 [1]: 14.3 ± 2.06%^A | IC50 (moles/L) for rhMMP-9 [1]: 19.6 ± 0.36%^a moles/L

CCCCCCCCO [1-octanol]
IC50 (moles/L) for rhMMP-9 [1]: 0.3 ± 0.22%^b moles/L | inhibition at 170000 µM [1, 4]: 25.4 ± 1.21%

CC(C)(C)O [tert-butanol]
Loss of dry mass (%) ([2]; alcohol 4.28 M): -3.52 ± 0.28% (10)^A | % Inhibition (loss of dry mass) ([2]; alcohol 4.28 M): 83.3%

CCCO [1-propanol]
% Inhibition of soluble rhMMP-9 [1]: 79.7 ± 0.18%^F | IC50 (moles/L) for rhMMP-9 [1]: 2.7 moles/L and 2.7 ± 0.13%^d moles/L | % Inhibition (loss of dry mass) ([2]; alcohol 4.28 M): 80.2% | % Inhibition (solubilization of HYP) ([3]; alcohol 4.28 M): 78.2%

OCCCO [1,3-propanediol]
Loss of dry mass (%) ([2]; alcohol 4.28 M): -3.22 ± 0.31% (10)^A

CCCCC(O)CCC (stereo not drawn) [4-octanol]
IC50 (moles/L) for rhMMP-9 [1]: 1.1 ± 0.04%^c moles/L | inhibition at 170000 µM [1, 4]: 17.7 ± 0.27%

CCCCCO [1-pentanol]
inhibition at 860000 µM [1, 4]: 28.5 ± 0.54%
